Consider 21 compounds from patent US11078198B2 (BRISTOL-MYERS SQUIBB COMPANY, priority 2017, dated 2021).

pEC50: −log10 of the molar value.

The target of this assay is T1, human FXR (Homo sapiens, UniProt Q96RI1).
T1 construct: expressed in transfected cells; host or cells: HEK293 cells stably carrying a 5xGal4-response-element firefly luciferase reporter, transiently transfected with pcDNA3.1-Gal4-FXR
T1 sequence (Q96RI1 262-486 limits assumed): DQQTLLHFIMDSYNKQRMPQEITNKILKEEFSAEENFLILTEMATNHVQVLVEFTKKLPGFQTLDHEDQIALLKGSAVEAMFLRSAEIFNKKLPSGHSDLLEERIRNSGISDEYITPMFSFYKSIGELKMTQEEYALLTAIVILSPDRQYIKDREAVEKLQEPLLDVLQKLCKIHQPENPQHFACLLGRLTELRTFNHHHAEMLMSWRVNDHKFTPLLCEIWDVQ
The assay can be described thus: transient human FXR/Gal4-luciferase reporter assay. Conditions: Gal4-hFXR transfected HEK293 reporter cells; relative to 8 μM GW-4064. Format: cell-based. As for the experimental part:
A Gal4-hFXR fusion construct reporter system was used as the primary assay to characterize compound activity. A construct including 5 copies of the Gal4 promoter response element upstream of a firefly luciferase reporter cDNA was stably expressed in HEK293 cells. This reporter cell line was maintained in Dulbecco's Modified Eagle's medium (DMEM; Gibco) supplemented with 1% penicillin-streptomycin (P/S) solution, 500 μg/mL Zeocin and 10% charcoal/dextran-treated fetal bovine serum (cs-FBS) at 37° C. in a humidified 5% CO2 atmosphere. Another plasmid was constructed in which the human cytomegalovirus promoter in the pcDNA3.1 vector directs the expression of the cDNA encoding a fusion protein comprised of the DNA binding domain from the Gal4 transcription factor fused to the ligand binding domain from human FXR.
The day prior to transfection, the reporter cells in culture are detached from the plate with trypsin and plated into a T75 flask at a sufficient density to achieve approximately 90% confluence the next morning. The transfection reagents are prepared by separately diluting 25 μg of the pcDNA3.1-Gal4-FXR plasmid into 1.87 mL of Opti-MEM (Thermo-Fisher), and 40 μL of Lipofectamine 2000 (Thermo-Fisher) into 1.87 mL of Opti-MEM, and then adding the diluted DNA solution into the diluted Lipofectamine 2000 solution and incubating at room temperature for 15-20 minutes. The mixture is further diluted with 10 mL of a solution comprised of DMEM, 10% cs-FBS, and 1% P/S immediately prior to transferring to the cells. The maintenance culture media is aspirated from the cells and the final transfection mixture is added before the cells are incubated overnight at 37° C. in a humidified 5% CO2 atmosphere. This protocol can be scaled up, and the transiently transfected cells can be cryopreserved in an assay-ready format.
For compound testing, 100 nL of the compounds (serial dilutions in DMSO) are dispensed with an Echo acoustic dispenser (Labcyte) into the wells of a Corning/Costar clear bottom 384-well white plate. The transfected cells are harvested, counted, and diluted such that 10-25,000 cells in 25 μL are plated into each well of the 384-well compound assay plate. The compound-treated cells are incubated overnight at 37° C. in a humidified 5% CO2 atmosphere.
What is called pEC50 is −log10 of the EC50, conventionally taken in molar units. Low readings indicate a large EC50, high ones a small EC50. `O=C(O)c1cc(F)c2nc(N3[C@@H]4CC[C@H]3CC3(C=C(c5c(-c6c(Cl)cccc6Cl)noc5C5CC5)C3)C4)sc2c1` (mixture of isomers) [Example 11, 2-(3′-(5-Cyclopropyl-3-(2,6-dichlorophenyl)isoxazol-4-yl)-8-azaspiro[bicyclo[3.2.1]octane-3,1′-cyclobutan]-2′-en-8-yl)-4-fluorobenzo[d]thiazole-6-carboxylic acid] gave a negative logarithm of the EC50 (pEC50) of 6.72.

Consider `O=C(O)c1ccc(N2[C@@H]3CC[C@H]2CC2(C=C(c4c(-c5c(Cl)cccc5Cl)noc4C4CC4)C2)C3)nc1` (mixture of isomers) [Example 12, 6-(3′-(5-Cyclopropyl-3-(2,6-dichlorophenyl)isoxazol-4-yl)-8-azaspiro[bicyclo[3.2.1]octane-3,1′-cyclobutan]-2′-en-8-yl)nicotinic acid], for which the negative-log EC50 (pEC50) is 6.74. This pEC50 and that of the compound before are within 0.2 log units of each other.

`CC(C)(C)OC(=O)N1CCC2(CC1)COC(c1c(-c3c(Cl)cccc3Cl)noc1C1CC1)O2` (racemic) [(±)-tert-Butyl 2-(5-cyclopropyl-3-(2,6-dichlorophenyl)isoxazol-4-yl)-1,3-dioxa-8-azaspiro[4.5]decane-8-carboxylate] gave a pEC50 of 5.32.

`O=C(O)c1cc(F)c2nc(N3CCC4(C=C(c5c(-c6c(Cl)cccc6Cl)noc5C5CC5)CO4)CC3)sc2c1` [Example 3, 2-(3-(5-Cyclopropyl-3-(2,6-dichlorophenyl)isoxazol-4-yl)-1-oxa-8-azaspiro[4.5]dec-3-en-8-yl)-4-fluorobenzo[d]thiazole-6-carboxylic acid] gave a pEC50 of 6.62.

`O=C(O)c1cccc(N2CCC3(C=C(c4c(-c5c(Cl)cccc5Cl)noc4C4CC4)C3)CC2)n1` [Example 4, 6-(2-(5-Cyclopropyl-3-(2,6-dichlorophenyl)isoxazol-4-yl)-7-azaspiro[3.5]non-1-en-7-yl) picolinic acid] had a negative-log EC50 (pEC50) of 6.15.

Regarding `O=C(O)c1ccc(N2CCC3(C=C(c4c(-c5c(Cl)cccc5Cl)noc4C4CC4)C3)CC2)nn1` [Example 5, 6-(2-(5-Cyclopropyl-3-(2,6-dichlorophenyl)isoxazol-4-yl)-7-azaspiro[3.5]non-1-en-7-yl)pyridazine-3-carboxylic acid], the negative-log EC50 (pEC50) is 6.50.

With `Cn1cc(C(=O)O)c2cnc(N3CCC4(C=C(c5c(-c6c(Cl)cccc6Cl)noc5C5CC5)C4)CC3)nc21` [Example 6, 2-(2-(5-Cyclopropyl-3-(2,6-dichlorophenyl)isoxazol-4-yl)-7-azaspiro[3.5]non-1-en-7-yl)-7-methyl-7H-pyrrolo[2,3-d]pyrimidine-5-carboxylic acid], the negative logarithm of the EC50 (pEC50) is 7.33.

Take `Cn1cc(C(=O)O)c2ccc(N3CCC4(C=C(c5c(-c6c(Cl)cccc6Cl)noc5C5CC5)C4)CC3)nc21` [Example 7, 6-(2-(5-Cyclopropyl-3-(2,6-dichlorophenyl)isoxazol-4-yl)-7-azaspiro[3.5]non-1-en-7-yl)-1-methyl-1H-pyrrolo[2,3-b]pyridine-3-carboxylic acid]: the pEC50 is 7.62.

`O=C(O)c1cccc(N2CCC3(C=C(c4c(-c5c(Cl)cccc5Cl)noc4C4CC4)C3)CC2)c1` [Example 9, 3-(2-(5-Cyclopropyl-3-(2,6-dichlorophenyl)isoxazol-4-yl)-7-azaspiro[3.5]non-1-en-7-yl)benzoic acid] showed a negative logarithm of the EC50 (pEC50) of 5.38. Compared with the last compound, the pEC50 is 2.24 log units lower.

The compound `O=C(O)c1ccc(N2CCC3(C=C(c4c(-c5c(Cl)cccc5Cl)noc4C4CC4)C3)CC2)cc1` [Example 10, 4-(2-(5-Cyclopropyl-3-(2,6-dichlorophenyl)isoxazol-4-yl)-7-azaspiro[3.5]non-1-en-7-yl)benzoic acid] gave a pEC50 of 6.87.

Take `O=C(O)c1ccc(N2CCC3(C=C(c4c(-c5ccccc5Cl)noc4C4CC4)C3)CC2)cc1` [Example 14, 4-(2-(3-(2-Chlorophenyl)-5-cyclopropylisoxazol-4-yl)-7-azaspiro[3.5]non-1-en-7-yl)benzoic acid]: the negative logarithm of the EC50 (pEC50) is 6.05.

`O=C(O)c1cc(F)c2nc(N3C4CCC3CC3(CC(c5c(-c6c(Cl)cccc6Cl)noc5C5CC5)C3)C4)sc2c1` (stereo not drawn) [Example 15, 2-(3′-(5-Cyclopropyl-3-(2,6-dichlorophenyl)isoxazol-4-yl)-8-azaspiro[bicyclo[3.2.1]octane-3,1′-cyclobutan]-8-yl)-4-fluorobenzo[d]thiazole-6-carboxylic acid]: the pEC50 is 6.52.

In the case of `O=C(O)c1ccc(N2C3CCC2CC2(CC(c4c(-c5c(Cl)cccc5Cl)noc4C4CC4)C2)C3)nc1` (stereo not drawn) [Example 16, 6-(3′-(5-Cyclopropyl-3-(2,6-dichlorophenyl)isoxazol-4-yl)-8-azaspiro[bicyclo[3.2.1]octane-3,1′-cyclobutan]-8-yl)nicotinic acid], the negative logarithm of the EC50 (pEC50) was 6.19.

For `O=C(O)c1ccc(N2CCC3(C=C(c4c(-c5ccccc5OC(F)(F)F)noc4C4CC4)C3)CC2)nn1` [Example 18, 6-(2-(5-Cyclopropyl-3-(2-(trifluoromethoxy)phenyl)isoxazol-4-yl)-7-azaspiro[3.5]non-1-en-7-yl)pyridazine-3-carboxylic acid], the pEC50 is 5.82.

`O=C(O)c1cnc(N2CCC3(C=C(c4c(-c5c(Cl)cccc5Cl)noc4C4CC4)C3)CC2)cn1` [Example 19, 5-(2-(5-Cyclopropyl-3-(2,6-dichlorophenyl)isoxazol-4-yl)-7-azaspiro[3.5]non-1-en-7-yl) pyrazine-2-carboxylic acid] gave a pEC50 of 6.96.

In turn, `O=C(O)c1ccc(N2CCC3(C=C(c4c(-c5ccccc5OC(F)(F)F)noc4C4CC4)C3)CC2)nc1` [Example 21, 6-(2-(5-Cyclopropyl-3-(2-(trifluoromethoxy)phenyl)isoxazol-4-yl)-7-azaspiro[3.5]non-1-en-7-yl) nicotinic acid] showed a pEC50 of 6.11.

Compound `O=C(O)c1ncc(N2CCC3(C=C(c4c(-c5c(Cl)cccc5Cl)noc4C4CC4)C3)CC2)cn1` [Example 22, 5-(2-(5-Cyclopropyl-3-(2,6-dichlorophenyl)isoxazol-4-yl)-7-azaspiro[3.5]non-1-en-7-yl) pyrimidine-2-carboxylic acid] showed a negative-log EC50 (pEC50) of 5.82. This pEC50 lies 0.29 log units lower than the previous one.

In turn, `O=C(O)c1ccc2nc(N3CCC4(C=C(c5c(-c6c(Cl)cccc6Cl)noc5C5CC5)C4)CC3)sc2c1` [Example 24, 2-(2-(5-Cyclopropyl-3-(2,6-dichlorophenyl)isoxazol-4-yl)-7-azaspiro[3.5]non-1-en-7-yl)benzo[d]thiazole-6-carboxylic acid] had a pEC50 of 7.77.

`Cn1c(N2CCC3(C=C(c4c(-c5c(Cl)cccc5Cl)noc4C4CC4)C3)CC2)nc2cc(C(=O)O)ccc21` [Example 25, 2-(2-(5-Cyclopropyl-3-(2,6-dichlorophenyl)isoxazol-4-yl)-7-azaspiro[3.5]non-1-en-7-yl)-1-methyl-1H-benzo[d]imidazole-5-carboxylic acid] showed a negative logarithm of the EC50 (pEC50) of 5.99.

The compound `O=C(O)c1ccc2oc(N3CCC4(C=C(c5c(-c6c(Cl)cccc6Cl)noc5C5CC5)C4)CC3)nc2c1` [Example 26, 2-(2-(5-Cyclopropyl-3-(2,6-dichlorophenyl)isoxazol-4-yl)-7-azaspiro[3.5]non-1-en-7-yl)benzo[d]oxazole-5-carboxylic acid] had a pEC50 of 6.80.

On to `O=C(O)c1cnc(N2CCC3(C=C(c4c(-c5ccccc5OC(F)(F)F)noc4C4CC4)C3)CC2)c(F)c1` [Example 27, 6-(2-(5-Cyclopropyl-3-(2-(trifluoromethoxy)phenyl)isoxazol-4-yl)-7-azaspiro[3.5]non-1-en-7-yl)-5-fluoronicotinic acid], for which the negative-log EC50 (pEC50) was 5.96. This pEC50 lies 0.84 log units lower than the previous one.
